For the assay, the target named is T1, soybean lipoxygenase (LOX) (Glycine max, UniProt P08170).
T1 construct: gene LOX1.1
T1 sequence (P08170 1-839): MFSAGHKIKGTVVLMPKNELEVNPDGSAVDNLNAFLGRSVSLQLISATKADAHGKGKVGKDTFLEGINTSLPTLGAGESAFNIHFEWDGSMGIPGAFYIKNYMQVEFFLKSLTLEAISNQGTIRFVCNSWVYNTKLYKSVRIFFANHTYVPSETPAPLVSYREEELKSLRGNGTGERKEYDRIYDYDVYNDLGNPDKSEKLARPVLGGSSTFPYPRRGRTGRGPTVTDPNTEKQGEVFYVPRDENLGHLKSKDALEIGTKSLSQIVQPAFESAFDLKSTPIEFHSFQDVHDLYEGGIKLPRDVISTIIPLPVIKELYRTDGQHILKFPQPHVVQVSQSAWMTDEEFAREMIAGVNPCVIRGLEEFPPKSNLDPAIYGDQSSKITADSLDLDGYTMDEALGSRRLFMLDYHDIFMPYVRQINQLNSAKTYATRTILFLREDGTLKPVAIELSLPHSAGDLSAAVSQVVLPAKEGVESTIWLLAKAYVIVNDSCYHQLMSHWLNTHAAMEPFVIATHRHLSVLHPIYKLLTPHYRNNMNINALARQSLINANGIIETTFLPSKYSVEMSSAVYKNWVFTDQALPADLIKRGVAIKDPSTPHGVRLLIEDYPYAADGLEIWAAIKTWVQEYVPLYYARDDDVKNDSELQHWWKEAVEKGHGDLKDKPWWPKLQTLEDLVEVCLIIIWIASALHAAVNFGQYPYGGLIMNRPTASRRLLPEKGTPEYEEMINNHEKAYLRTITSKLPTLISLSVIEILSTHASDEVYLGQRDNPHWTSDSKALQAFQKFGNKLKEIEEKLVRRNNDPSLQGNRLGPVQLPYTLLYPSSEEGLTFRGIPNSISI
The experiment in a line: UV absorbance at […] nm, sodium linoleate oxidation by soybean LOX, pH […]. The class given is biochemical.

pIC50: −log10 of the molar value.

As for `CC(C)(C)/[N+]([O-])=C/c1ccc2cccc(O)c2n1` [QN5], the pIC50 was 5.30.

As usually defined, the pIC50 is the IC50 on a negative log10 scale, so that one unit is a factor of ten. A high value points to a low IC50.

The values are drawn from publication PMC9938201, “Neuroprotective and antioxidant properties of new quinolylnitrones in in vitro and in vivo cerebral ischemia models” (Scientific Reports, 2023).
